Experimental data taken from US20220218725A1, “METHODS AND MATERIALS FOR TREATING CANCER” (Mayo Foundation for Medical Education and Research, priority 2019, published 2022).

Legend:
[1] = test system: MZL primary patient samples; experiment: Viability of primary patient samples, Annexin V/PI assay; format: cell-based, human; conditions: 48 h, KPT-330 0.05-0.5 μM, CS 1-3 mM
Excerpt: (§1) Primary patient samples were obtained. The mononuclear cells were obtained from bone marrow, spleen, peripheral blood and lymph nodes as follows. Freshly obtained tissue (lymph node, spleen, bone marrow) was placed in mesh screen and using a syringe plunger, the tissue was pressed into a petri dish. Samples were then rinsed through the screen using measured amounts of RPMI until all tissue has been pressed through. […] Subsequently the mononuclear cells were isolated via centrifugation in the presence of ficoll and this step was again repeated following washing the cells with RPMI media.
(§2) To isolate peripheral blood mononuclear cells (PBMCs), freshly obtained patient blood sample of patients were centrifuged in the present of ficoll and this step was repeated twice following washing the cells with PBS. Following isolating the mononuclear cells, the viability was assessed and ascertained proper viability above 80% prior to conduct respective experiments. Non-malignant cells were confirmed not to have a malignant condition by pathology review of the tissue.

[2] = test system: MM/plasma cell leukemia primary patient samples; experiment: as above; format: cell-based, human; conditions: 48 h, KPT-330 0.05-0.5 μM, CS 1-3 mM
Excerpt: as §1, §2

[3] = test system: T-cell Lymphoblastic leukemia primary patient sample; experiment: as above; format: cell-based, human; conditions: Relapsed T-cell Lymphoblastic leukemia; 48 h; KPT-330 0.05-0.5 μM, CS 1-3 mM
Excerpt: as §1, §2

[4] = test system: Peripheral T-cell lymphoma primary patient samples; experiment: as above; format: cell-based, human; conditions: 48 h, KPT-330 0.05-0.5 μM, CS 1-3 mM
Excerpt: as §1, §2

[5] = test system: Lymphoplasmacytic lymphoma primary patient sample; experiment: as above; format: cell-based, human; conditions: Lymphoplasmacytic lymphoma with IgG monoclonal gammopathy; 48 h; KPT-330 0.05-0.5 μM, CS 1-3 mM
Excerpt: as §1, §2

[6] = test system: WM primary patient sample; experiment: as above; format: cell-based, human; conditions: 48 h, KPT-330 0.05-0.5 μM, CS 1-3 mM
Excerpt: as §1, §2

[7] = test system: CLL primary patient samples; experiment: as above; format: cell-based, human; conditions: TP53 deleted, 48 h, KPT-330 0.05-0.5 μM, CS 1-3 mM
Excerpt: as §1, §2

[8] = test system: MCL primary patient samples; experiment: as above; format: cell-based, human; conditions: 48 h, KPT-330 0.05-0.5 μM, CS 1-3 mM
Excerpt: as §1, §2

[9] = test system: DLBCL primary patient samples; experiment: as above; format: cell-based, human; conditions: 48 h, KPT-330 0.05-0.5 μM, CS 1-3 mM
Excerpt: as §1, §2

Hs 578T cells = experiment: Cell viability, Annexin V/PI assay; format: cell-based; conditions: Hs 578T (Breast cancer); 48 hours; KPT-330 0.1-1.0 μM, CS 1-3 mM, single agent or combination
Experimental: (§3) KPT-330 purchased from Selleckchem (cat no: S7252) was dissolved in DMSO while CS (Santa Cruz, Calif.S 2016-36-6), sodium salicylate (Sigma-Aldrich, cat no: S3007), acetyl salicylate (Sigma-Aldrich, cat no: CAS 50-78-2) was diluted in PBS. […] The concentration range of KPT-330 was 0.05-1.0 μM while CS was 1-3 mM were used for ex vivo treatment and incubation time ranged from 24 hours to 72 hours.
(§4) The viability assessment for cell lines and primary patients samples were conducted with the Annexin V/PI method.

[10] = test system: CMML patient-derived bone marrow sample; experiment: Hematopoietic progenitor colony forming assay; format: cell-based, human; conditions: assessed by counting colony forming units in methyl cellulose media, KPT-330 0.05-0.5 μM, CS 1-3 mM
Excerpt: CMML patient-derived bone marrow samples were first treated with ammonium chloride to deplete red blood cells, washed in RPMI, then plated at a final concentration of 5×10^4-2×10^5 cells/mL in addition to drug(s). This solution was immediately inoculated into methylcellulose (StemCell) formulated with recombinant cytokines to support the optimal growth of erythroid progenitor cells, granulocyte-macrophage progenitor cells, and multipotent granulocyte, erythroid, macrophage and megakaryocyte progenitor cells. Plates were incubated with respective treatment conditions at 37° C. and colonies were enumerated on day 10-14.

JeKo-1 cells [11] = experiment: Cell cycle analysis (PI staining, flow cytometry); format: cell-based; conditions: unsynchronized JeKo-1 cells
Experimental: For cell cycle analysis, Jeko-1 cell line was intubated with CRM 1 inhibitors (concentrations ranging from 0.1-0.5p M) and salicylates (concentration at 3 mM) and Ly-1 cell line was intubated with CRM 1 inhibitors (concentrations ranging from 0.1-2.0 μM) and salicylates (concentration at 0.5-5 mM) for 24 and 48 hours and then fixed with 95% cold ethanol and kept at 4 C° for 24 h and subsequently underwent cell cycle analysis after PI staining and analysis was performed using BD FACS caliber flow cytometer (BD Biosciences) and FlowJo software (Tree Star).
Cell Cycle Analysis Following incubation, cells were fixed with 70% cold ethanol and kept at 4 C° for 24 hours, followed by PI staining. Cell cycle analysis was done by using a BD FACS Caliber flow cytometer (BD Biosciences) and analyzed using FlowJo® Software.
A double thymine block was used to synchronize cells at G1 phase of the cell cycle. JeKo-1 cells were cultured in thymidine at 2 mM in RPMI for 9 hours. Subsequently, cells were washed and cultured in RPMI media (RPMI) without additional thymidine for 12 hours and the second block of cell cycle with thymidine (2 mM) was carried out for an additional 9 hours with in RPMI. Following the double thymidine block, cells were released by re-culturing cells in normal RPMI without additional thymidine. The viability of cells at the time of release was >90%. […]

L3.6 cells = experiment: Cell viability, Annexin V/PI assay; format: cell-based; conditions: L3.6 (Pancreatic cancer); 48 hours; KPT-330 0.1-1.0 μM, CS 1-3 mM, single agent or combination
Experimental: as §3, §4

BT-474 cells = experiment: Cell viability, Annexin V/PI assay; format: cell-based; conditions: BT-474 (Breast cancer); 48 hours; KPT-330 0.1-1.0 μM, CS 1-3 mM, single agent or combination
Experimental: as §3, §4

JeKo-1 cells [12] = experiment: Mitotic index calculation; format: cell-based; conditions: 48 hours, light microscopy
Experimental: Following the incubation of respective time periods, cytospin slides were prepared and stained with Hema 3 staining on the many factors protocol. Subsequently the mitotic index was calculated by the number of mitoses evaluated in 10 high power fields (×400).

MCF7 cells = experiment: Cell viability, Annexin V/PI assay; format: cell-based; conditions: MCF7 (Breast cancer); 48 hours; KPT-330 0.1-1.0 μM, CS 1-3 mM, single agent or combination
Experimental: as §3, §4

[13] = Relapsed splenic MZL (sample of r15)
[14] = Relapsed splenic MZL (sample of r16)
[15] = Relapsed splenic MZL (sample of r18)
[16] = Relapssd splenic MZL (sample of r17)
[17] = Kappa light chain myeloma/plasma cell leukemia with I(11; 14), standard risk
[18] = MM/plasma cell leukemia, Relapsed with high risk cytogenetics (sample of r32)
[19] = MM/plasma cell leukemia, Relapsed with high risk cytogenetics (sample of r33)
[20] = MM/plasma cell leukemia, Relapsed with high risk cytogenetics (sample of r34)
[21] = MM/plasma cell leukemia, Relapsed with high risk cytogenetics (sample of r38)
[22] = Relapsed Peripheral T-cell lymphoma (sample of r30)
[23] = Relapsed Peripheral T-cell lymphoma (sample of r31)
[24] = Relapsed CLL: Ibrutinib and Idalalisib resistant
[25] = Relapsed CLL: Ibrutinib resistent
[26] = Relapsed MCL resistant to Ibrutinib
[27] = Double expresser transformed from CLL/SLL
[28] = Double hit, replaced from RCHOP, ASCT and BR
[29] = NOS, single agent or combination

Compound	% viability normalized for respective controls ([1]; Relapsed nodal MZL)	% viability normalized for respective controls [1, 13]	% viability normalized for respective controls [1, 14]	% viability normalized for respective controls [1, 15]	% viability normalized for respective controls [1, 16]	% viability normalized for respective controls [2, 17]	% viability normalized for respective controls [2, 18]	% viability normalized for respective controls [2, 19]	% viability normalized for respective controls [2, 20]	% viability normalized for respective controls [2, 21]	% viability normalized for respective controls [3]	% viability normalized for respective controls [4, 22]	% viability normalized for respective controls [4, 23]	% viability normalized for respective controls [5]	% viability normalized for respective controls [6]	% viability normalized for respective controls [7, 24]	% viability normalized for respective controls [7, 25]	% viability normalized for respective controls [8, 26]	% viability normalized for respective controls ([8]; Relapsed MCL)	% viability normalized for respective controls [9, 27]	further results
C[N+](C)(C)CCO.O=C([O-])c1ccccc1O [CS, choline salicylate]	65%	63%	71%	65%	82%	64%	58%	90%	69%	99%	82%	64%	73%	88%	79%	78%	75%	91%	68%	65%	% viability normalized for respective controls ([9]; Double expresser): 80%; % viability normalized for respective controls ([9]; Double hit transformed from FL): 71%; % viability normalized for respective controls [9, 28]: 86%; % viability normalized for respective controls [9, 29]: 76%; % viability normalized for respective controls (Hs 578T cells): 87%; % viability normalized for respective controls [10]: 53%; fraction of cells in the G2/M phase (JeKo-1 cells [11]): 11%; % viability normalized for respective controls (L3.6 cells): 72%; % viability normalized for respective controls (BT-474 cells): 110%; mitotic index (MI) (JeKo-1 cells [12]): 166 /10 HPF; % viability normalized for respective controls (MCF7 cells): 87%
O=C(/C=C\n1cnc(-c2cc(C(F)(F)F)cc(C(F)(F)F)c2)n1)NNc1cnccn1 [KPT-330, (Z)-3-[3-[3,5-bis (trifluoromethyl)phenyl]-1,2,4-triazol-1-yl]-N′-pyrazin-2-ylprop-2-enehydrazide]	58%	55%	67%	67%	70%	55%	79%	91%	93%	96%	70%	73%	68%	79%	85%	72%	99%	94%	89%	68%	% viability normalized for respective controls ([9]; Double expresser): 74%; % viability normalized for respective controls ([9]; Double hit transformed from FL): 82%; % viability normalized for respective controls [9, 28]: 81%; % viability normalized for respective controls [9, 29]: 63%; % viability normalized for respective controls (Hs 578T cells): 73%; % viability normalized for respective controls [10]: 56%; fraction of cells in the G2/M phase (JeKo-1 cells [11]): 15%; % viability normalized for respective controls (L3.6 cells): 61%; % viability normalized for respective controls (BT-474 cells): 73%; mitotic index (MI) (JeKo-1 cells [12]): 153 /10 HPF; % viability normalized for respective controls (MCF7 cells): 98%
